Here are results for twelve molecules from patent publication US20170291905A1, “ARGININE […] INHIBITORS AND USES THEREOF” (Epizyme, Inc., priority 2014, published 2017).

Molecules are shown by their SMILES.

This assay deals with T1, full-length human PRMT1 isoform 1 (GST-tagged) (Homo sapiens, UniProt Q99873).
T1 construct: GST-tagged PRMT1 was eluted with 50 mM Tris, 2 mM glutathione, pH 7.8, dialysed in buffer A and concentrated; made in house; host or cells: High Five insect cells (baculovirus)
T1 sequence (Q99873 with tags, fused parts or gaps): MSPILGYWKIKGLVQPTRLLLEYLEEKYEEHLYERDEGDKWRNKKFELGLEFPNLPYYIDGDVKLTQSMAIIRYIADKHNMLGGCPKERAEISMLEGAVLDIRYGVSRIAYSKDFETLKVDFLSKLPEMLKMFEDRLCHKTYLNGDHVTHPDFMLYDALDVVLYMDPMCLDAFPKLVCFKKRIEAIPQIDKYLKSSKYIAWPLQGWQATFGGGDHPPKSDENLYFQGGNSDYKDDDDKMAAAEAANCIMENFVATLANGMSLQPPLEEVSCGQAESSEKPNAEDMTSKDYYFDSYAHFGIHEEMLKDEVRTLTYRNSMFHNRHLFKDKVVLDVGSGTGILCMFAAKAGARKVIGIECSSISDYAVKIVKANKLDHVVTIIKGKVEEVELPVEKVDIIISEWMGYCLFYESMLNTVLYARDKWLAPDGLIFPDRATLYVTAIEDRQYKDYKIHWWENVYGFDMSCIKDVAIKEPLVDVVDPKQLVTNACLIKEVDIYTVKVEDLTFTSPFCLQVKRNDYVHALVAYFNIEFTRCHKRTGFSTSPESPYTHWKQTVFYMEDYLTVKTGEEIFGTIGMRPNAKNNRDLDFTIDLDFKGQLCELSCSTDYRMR
As to the kind of experiment: PRMT1 biochemical assay (3H-SAM Flashplate, histone H4 36-50 peptide). The conditions noted are these: 0.5 nM PRMT1, 30 min preincubation, 20 nM peptide. The method in brief: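 GST-PRMT1 (0.5 nM) preincubated 30 min at room temperature with compound in bicine buffer pH 7.6. Reaction then run with 200 nM 3H-SAM plus 1.5 uM SAM and 20 nM biotinylated H4 36-50 peptide, 2% DMSO. Stopped with excess cold SAM, and methylated peptide captured on streptavidin Flashplates for counting; % inhibition versus DMSO and 1 mM SAH controls, 3- or 4-parameter fit.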
By IC50 is commonly meant the midpoint of a concentration-inhibition curve. As for `CC[C@H]1CC[C@@H](c2n[nH]cc2CN(C)CCNC)CC1` [compound 1], half-maximal inhibition (IC50) was put at 4.8 nM.

`CCOCCOCC1(COCCOCC)CCC(c2n[nH]cc2CN(C)CCNC)CC1` [compound 39, N1-((3-(4,4-bis((2-ethoxyethoxy)methyl)cyclohexyl)-1H-pyrazol-4-yl)methyl)-N1,N2-dimethylethane-1,2-diamine] showed an IC50 of 31.2 nM.

`CNCCN(C)Cc1c[nH]nc1C1CCC(COCCC2CCOCC2)(COCCC2CCOCC2)CC1` [compound 40]: the IC50 turned out to be 20.7 nM.

`CNCCN(C)Cc1c[nH]nc1C1CCC(COCC2CC2)(COCC2CC2)CC1` [compound 41, N1-((3-(4,4-bis((cyclopropylmethoxy)methyl)cyclohexyl)-1H-pyrazol-4-yl)methyl)-N1,N2-dimethylethane-1,2-diamine] had an IC50 of 4.33 nM. For the molecule `CN(C)CCN(C)Cc1c[nH]nc1[C@H]1CC[C@@]2(CC1)CC(C)(C)CO2` [compound 42, N1-((3-((5S,8S)-3,3-dimethyl-1-oxaspiro[4.5]decan-8-yl)-1H-pyrazol-4-yl)methyl)-N1,N2,N2-trimethylethane-1,2-diamine], the IC50 was found to be 31.5 nM. As for `CN(C)CCN(C)Cc1c[nH]nc1[C@H]1CC[C@]2(CC1)CC(C)(C)CO2` [compound 43, N1-((3-((5r,8r)-3,3-dimethyl-1-oxaspiro[4.5]decan-8-yl)-1H-pyrazol-4-yl)methyl)-N1,N2,N2-trimethylethane-1,2-diamine], the figure is 57 nM; as for `CNCCN(C)Cc1c[nH]nc1C1CCC(CO)(CO)CC1` [compound 44, (4-(4-((methyl(2-(methylamino)ethyl)amino)methyl)-1H-pyrazol-3-yl)cyclohexane-1,1-diyl)dimethanol], 21.3 nM; as for `CNCCN(C)Cc1c[nH]nc1C1CCC(COC)(COCC2CCOCC2)CC1` (stereo not drawn) [compound 45], 33 nM.

For `CNCCN(C)Cc1c[nH]nc1C1=CCC2(CC1)CC(C)(C)CO2` (stereo not drawn) [compound 46, N1-((3-(3,3-dimethyl-1-oxaspiro[4.5]dec-7-en-8-yl)-1H-pyrazol-4-yl)methyl)-N1,N2-dimethylethane-1,2-diamine], half-maximal inhibition (IC50) was put at 19.8 nM. `CCC1(CC)C[C@]2(CC[C@H](c3n[nH]cc3CN(C)CCNC)CC2)NC1=O` [compound 47, (5s,8s)-3,3-diethyl-8-(4-((methyl(2-(methylamino)ethyl)amino)methyl)-1H-pyrazol-3-yl)-1-azaspiro[4.5]decan-2-one]: the IC50 came out at 15.2 nM. As to `CCC1(CC)C[C@]2(CC[C@@H](c3n[nH]cc3CN(C)CCNC)CC2)NC1=O` [compound 48, (5r,8r)-3,3-diethyl-8-(4-((methyl(2-(methylamino)ethyl)amino)methyl)-1H-pyrazol-3-yl)-1-azaspiro[4.5]decan-2-one], half-maximal inhibition (IC50) was put at 35.3 nM. For the molecule `CNCCN(C)Cc1ccnn1[C@H]1CC[C@@]2(CC1)CC(C)(C)CO2` [compound 49, N1-((1-((5s,8s)-3,3-dimethyl-1-oxaspiro[4.5]decan-8-yl)-1H-pyrazol-5-yl)methyl)-N1,N2-dimethylethane-1,2-diamine], it took 19.3 nM to reach half-maximal inhibition (IC50).
